Assay results published in US20090298799A1, “Methods of Treating Osteoporosis and Secondary Hyperparathyroidism Using 20-Methyl, Gemini Vitamin D3 Compounds” (BioXell S.p.A., priority 2005, published 2009).

Columns and labels:
[1] = test system: OVX rats; assay: Osteoporosis, early curative treatment in 3 month old OVX rats; details: for Tibia (μCT) increased over OVX controls / vertebrae (L5) increase over OVX control rats: 5/7 days for 3 weeks; for efficacy compared with calcitriol: 3 month old OVX rats
Description: Three-month old Sprague Dawley female rats were purchased from CERJ or Charles River, France. Rats underwent bilateral ovariectomy (OVX) or sham-operation (Sham) under anesthesia with intraperitoneal ketamine hydrochloride (50 mg/kg BW). The success of ovariectomy was evidenced at necropsy by weighing the uterus and visualizing the absence of ovarian tissue.
Throughout the whole experiment, rats were housed at 22±2° C. with a 12 h:12 h light-dark cycle. The animals were pair-fed a standard diet (Safe, 0.6% P, 0.8% Ca) and received Eau de Volvic ad libitum.
The treatment started 3 weeks post-ovariectomy. Compounds were firstly dissolved in ethanol (1 mg/ml). The other dilutions were done in Miglyol 812N. Compounds or vehicle (sham, OVX control rats) were given by daily oral gavage (5 ml/kg), 5/7 days for 3 weeks. […] Before the beginning of treatment, groups of sham and OVX rats were sacrificed to serve as basal controls. Ten and three days before sacrifice, rats were given subcutaneous injections of calcein (10 ml/kg, Sigma) to determine dynamic changes in bone tissue. The day before sacrifice, the rats were fasted and housed in metabolic cages to collect overnight urines.
At necropsy, right long bones were removed and fixed in 70% ethanol for further μCT (tibia and femur) and histomorphometry (tibia) analysis. The whole left legs were collected for pQCT analysis. The fourth and fifth lumbar vertebrae were dissected for DXA analysis. Excised tibias were scanned by a μCT machine (Scanco Medical) with software version 3.1 for a 2D-evaluation. The scans started at a distance of 1 mm of the reference line in the proximal tibia metaphysis. Five 0.5 mm-spaced slices were analyzed. The slice thickness was 20-30 μm. Bone volume (BV/TV) and trabeculae number (TbN) and thickness (TbTh) were assessed. Excised tibias were scanned by a pQCT machine (Stratec XCT Research SA+) with software version 5.4 to assess trabecular and cortical Bone Mineral Density (BMD) of proximal tibia metaphysis. For analysis of trabecular bone, the distance between the reference line and the first measurement line was 3 mm. Three other lines separated by 1 mm were analyzed. The cortical BMD was analyzed at 20 mm from the reference line. The voxel size was 0.10 mm. The peel mode used was 20/50. The BMD of excised fourth (L4) and fifth (L5) lumbar vertebrae were scanned by a DXA machine (Hologic QDR 4500) with software optimized for small animal studies. The regional high-resolution software selected a thin X-ray aperture. The large region was 68-71 and the narrow one was 35-21 to assess the body of the vertebrae of L4 and L5.
Left tibia from each rat was removed and dissected free of adjacent tissues. The bones were fixed in 70% ethanol, dehydrated in graded concentrations of ethanol, defatted in xylene, then embedded without decalcification in methyl methacrylate. Five μm-thick sections were made and stained with toluidine blue and cyanin solochrome and used for structural and cellular parameters evaluation. Ten μm-thick sections remained unstained for florescence microscopy observations. Structural and dynamic parameters were measured in the secondary spongiosa of the proximal tibial metaphysis situated about 1 mm distal from the growth plate-epiphyseal junction. Structural parameters, i.e. trabecular bone volume BV/TV (%), trabecular thickness (μm), connections and number, as well as cellular parameters (osteoblast, osteoid surfaces and osteoclast number), and dynamic parameters (mineralizing surface, mineral apposition rate, bone formation rate) were evaluated.
Osteocalcin (IRMA kit, Immutopics), DPyr (Metra DPD EIA kit), CTx (Ratlaps ELISA, Nordic, Bioscience Diagnostics) Ca, P, creatinin (Cobas Mira analyser) and rat PTH (Immutopics) were assessed in serum or urine material according to the manufacturer's instructions.

[2] = Determination of maximum tolerated dose (MTD) without hypercalcemia; design: species or system mice; details: female, C57BL/6, mouse, in vivo, po; p.o. daily for four days; highest dose without hypercalcemia (serum calcium>10.7 mg/dl)
Description: The maximum tolerated dose of the vitamin D3 compounds of the invention were determined in eight week-old female C57BL/6 mice (3 mice/group) dosed orally (0.1 ml/mouse) with various concentrations of Vitamin D3 analogs daily for four days. Analogs were formulated in miglyol for a final concentration of 10, 30, 100 and 300 μg/kg when given at 0.1 ml/mouse p.o. daily. Blood for serum calcium assay was drawn by tail bleed on day five, the final day of the study. Serum calcium levels were determined using a colormetric assay (Sigma Diagnostics, procedure no. 597). The highest dose of analog tolerated without inducing hypercalcemia (serum calcium>10.7 mg/dl) was taken as the maximum tolerated does (MTD).

[3] = test system: nephrectomized rats; assay: Secondary hyperparathyroidism, 5/6 nephrectomized (uremic) rats; format: in vivo, Sprague Dawley rats; details: for efficacy in PTH suppression and bone porosity / results compared to Zemplar in PTH suppression, CaxP, bone porosity and aortic calcification / safety profile compared to Zemplar: rat, in vivo; for bone protection / efficacy: rats with moderate renal failure
Description: Three month-old Sprague Dawley male rats (220-250 g BW) were purchased from CERJ, France, Rats were ⅚ nephrectomized (right kidney and ⅔ left kidney removed by surgery) or sham-operated (controls) by the supplier according to Prostrakan'procedures. The success of nephrectomy was evidenced at necropsy by visualizing the kidney tissue and measuring serum creatinin and urea. There were 10-12 rats in each group. […] Twenty days after operation, phosphate (Na2HPO4) was added to Eau de Volvic (6 g/l). Experimental procedures were approved by the Animal Ethics Committee of Prostrakan and by DDSV of Seine St Denis, France. The treatment started 82 days post-nephrectomy. Compounds were firstly dissolved in ethanol (1 mg/ml). The other dilutions were done in Miglyol 812N. […] Before the beginning of treatment, groups of control and nephrectomized rats were sacrificed to served as basal controls.
The whole left legs were collected for pQCT analysis. […] Five 0.5 mm-spaced slices were analyzed. The slide thickness was 20-30 μm. Bone volume (BV/TV) and trabecular number (TbN) and thickness (TbTh) were assessed. […] Three other lines separated by 1 mm were analyzed. […] The voxel size was 0.10 mm. The peel mode used was 20/50.
Ten μm-thick sections remained unstained for fluorescence microscopy observations.
To assess the calcification, aortas (6 cm-segment starting at arch), hearts and remaining kidney tissues were removed and fixed for histology analysis. Aortas segments were fixed in 3.7% formaldehyde and embedded in paraffin. Five μm cross sections were made and stained with a Von Kossa method for the calcification evaluation. The following grading of the calcification was used: moderate when less 50% of the aortic perimeter was calcified; severe when 100% of the aortic perimeter was calcified.
Data were expressed as mean±sem. […] The ANOVA test was used for all groups.

[4] = test system: renin; assay: Renin inhibition in vitro
[5] = test system: IFN-γ production; assay: IFN-γ production by allogeneic T cell activation in the mixed leukocyte response (MLR); format: cell-based; details: 120 h; allogeneic PBMC from 2 donors, 5 days, ELISA
Description: Immature dendritic cells (DC) were prepared as described in Romani, N. et al., J. Immunol. Meth. 196.137. IFN-γ production by allogeneic T cell activation in the mixed leukocyte response (MLR) was determined as described in Penna, G., et al., J. Immunol., 164: 2405-2411 (2000).
Briefly, peripheral blood mononuclear cells (PBMC) were separated from buffy coats by Ficoll gradient and the same number (3×105) of allogeneic PBMC from 2 different donors were co-cultured in 96-well flat-bottom plates. After 5 days, IFN-γ production in the MLR assay was measured by ELISA and the results expressed as amount (nM) of test compound required to induce 50% inhibition of IFN-γ production (IC50) (Table 1).

Row | SMILES | efficacy compared with calcitriol [1] | MTD at 4 days [2] [µg/kg] | peritrabecular fibrosis (tibia) ([3]; 0.1 μg/kg) | efficacy in PTH suppression and bone porosity [3] | results compared to Zemplar in PTH suppression, CaxP, bone porosity and aortic calcification [3] | safety profile compared to Zemplar [3] | bone protection [3] | efficacy [3] | inhibition of renin in vitro compared with calcitriol [4] | results compared to Zemplar in the renin inhibition in vitro experiments [4] | also measured
1 | C=C1/C(=C\C=C2/CCC[C@@]3(C)C2CCC3[C@](C)(CC#CC(O)(C(F)(F)F)C(F)(F)F)CCCC(C)(C)O)CC(O)C[C@@H]1O (stereo partly drawn) [Compound 1, (20S)-1,25-Dihydroxy-20-(5,5,5-trifluoro-4-hydroxy-4-trifluoromethyl-pent-2-ynyl)-cholecalciferol] | greater efficacy than calcitriol | 0.3 | – | – | – | – | – | – | – | – | Tibia (μCT) increased over OVX controls ([1]; 0.3 μg/kg oral): 90%; vertebrae (L5) increase over OVX control rats ([1]; 0.3 μg/kg oral): 8%; efficacy vs. calcitrol on travecular bone volume ([1]; 0.3 μg/kg, FIG. 4): higher; Tibia (μCT) increased over OVX controls ([1]; 1 μg/kg oral): 114%; vertebrae (L5) increase over OVX control rats ([1]; 1 μg/kg oral): 12%
2 | C=C1/C(=C\C=C2/CCC[C@@]3(C)C2CCC3[C@](C)(C/C=C\C(O)(C(F)(F)F)C(F)(F)F)CCCC(C)(C)O)CC(O)C[C@@H]1O (stereo partly drawn) [Compound 2, (20S)-1,25-Dihydroxy-20-((2Z)-5,5,5-trifluoro-4-hydroxy-4-trifluoromethyl-pent-2-enyl)cholecalciferol] | – | 0.3 | one of ten rats | demonstrated efficacy | greater or equal positive results compared to Zemplar | equal or more beneficial results | provided bone protection on the tibia and vertebrae | good efficacy | stronger inhibitition of renin in vitro over calcitriol | greater or equal positive results compared to Zemplar | osteoid thickening (tibia) ([3]; 1 μg/kg): normal levels; rats with mild porous levels of femur cortical porosity ([3]; 1 μg/kg): four of ten rats; femur cortical porosity ([3]; 3 μg/kg): nine rats demonstrated normal levels; osteoid thickening (tibia) ([3]; 3 μg/kg): normal levels; peritrabecular fibrosis (tibia) ([3]; 3 μg/kg): normal levels
3 | C=C1/C(=C\C=C2/CCC[C@@]3(C)C2CCC3[C@](C)(C/C=C/C(O)(C(F)(F)F)C(F)(F)F)CCCC(C)(C)O)CC(O)C[C@@H]1O (stereo partly drawn) [Compound 3, (20S)-1,25-Dihydroxy-20-[(2E)-5,5,5-trifluoro-4-hydroxy-4-trifluoromethyl-pent-2-enyl]-cholecalciferol] | greater efficacy than calcitriol | – | – | – | – | – | – | – | – | – | IC50 [5]: 44 pM
4 | C=C1/C(=C\C=C2/CCC[C@@]3(C)C2CCC3[C@@](C)(CC#CC(O)(C(F)(F)F)C(F)(F)F)CCCC(C)(C)O)CC(O)C[C@@H]1O (stereo partly drawn) [Compound 4, (20R)-1,25-Dihydroxy-20-(5,5,5-trifluoro-4-hydroxy-4-trifluoromethyl-pent-2-ynyl)-cholecalciferol] | – | – | normal levels | demonstrated efficacy | greater or equal positive results compared to Zemplar | equal or more beneficial results | provided bone protection on the tibia and vertebrae | good efficacy | stronger inhibitition of renin in vitro over calcitriol | greater or equal positive results compared to Zemplar | osteoid thickening (tibia) ([3]; 0.03 μg): normal levels; peritrabecular fibrosis (tibia) ([3]; 0.03 μg/kg): one of nine rats; rats with mild porous levels of femur cortical porosity ([3]; 0.03 μg/kg): four of nine rats; osteoid thickening (tibia) ([3]; 0.1 μg/kg): one of nine rats; rats with mild porous levels of femur cortical porosity ([3]; 0.1 μg/kg): one of nine rats
5 | C=C1/C(=C\C=C2/CCC[C@@]3(C)C2CCC3[C@@](C)(C/C=C/C(O)(C(F)(F)F)C(F)(F)F)CCCC(C)(C)O)CC(O)C[C@@H]1O (stereo partly drawn) [Compound 5, (20R)-1,25-Dihydroxy-20-[(2E)-5,5,5-trifluoro-4-hydroxy-4-trifluoromethyl-pent-2-enyl]-cholecalciferol] | – | 0.1 | – | – | – | – | – | – | – | – | –
6 | C=C1/C(=C\C=C2/CCC[C@@]3(C)C2CCC3[C@](C)(CC#CC(O)(C(F)(F)F)C(F)(F)F)CCCC(C)(C)O)CC(O)C[C@@H]1F (stereo partly drawn) [Compound 6, (20S)-1α-Fluoro-25-hydroxy-20-(5,5,5-trifluoro-4-hydroxy-4-trifluoromethyl-pent-2-ynyl)-cholecalciferol] | – | 100 | – | – | – | – | – | – | – | – | –
